Results on 1 compound are retold here after US20100111838A1, “BRAIN-LOCALIZING POLYPEPTIDES COMPRISING A MULTIVALENT BINDING MOIETY AND IMPROVED METABOLIC STABILITY” (Proteus Sciences Co., Ltd, priority 2007, published 2010).

This data set can be described thus: In vitro metabolism test of fluorescein-labeled peptides in liver extract solution (HPLC). The conditions noted are these: mouse liver extract solution, 37° C. The class given is in vitro ADME. On the procedure:
To compare the degree of improved stability observed in [C]K004K, an experiment system that uses a fluorescent pigment as a tracer instead of an isotope labeling for in vitro evaluation using a mouse liver homogenate was produced.
Add two parts of Hanks' solution to one part of mouse liver, and homogenize ↓ Centrifuge and collect supernatant ↓ Add five parts of Hanks' solution (liver extract solution) ↓ Add 5 μL of peptide to 245 μL of liver extract solution ↓
↓ Take 50 μL of sample 0, 5, 30, 60, and 120 minutes after incubation ↓ Add 200 μL, of 70% ethanol (pre-cooled at −30° C.) and then vortex ↓ Add 500 μL of chloroform (pre-cooled at −30° C.) and then vigorously vortex ↓ Centrifuge and collect supernatant ↓ Add an equivalent amount of DMF and then vortex ↓ Centrifuge and collect supernatant ↓ HPLC analysis using Co-sense
[C](Flu)-C004C: A peptide cyclized by adding C to both ends of the 004 sequence and forming a disulfide bond between them was labeled with fluorescein at its N-terminus. [C](Flu)-K004C: A peptide cyclized by adding K to the N terminus and C to the C terminus of the 004 sequence and forming a peptide bond between the N- and C-termini was labeled with fluorescein at its N terminus. [C](Flu)-K004K: A peptide cyclized by adding K to both ends of the 004 sequence and forming a peptide bond between the N- and C-termini was labeled with fluorescein at its N terminus. […]

Where a SMILES comes first, the peptide text is derived from it. The star is where a group is joined. 5FAM = O=C1OC2(c3ccc(O)cc3Oc3cc(O)ccc32)c2ccc(C(=O)*)cc21

Consider `CC(C)C[C@@H]1NC(=O)[C@H](Cc2c[nH]cn2)NC(=O)[C@H](CCCNC(=N)N)NC(=O)[C@H](C(C)C)NC(=O)[C@H](C(C)C)NC(=O)[C@H](CCCCNC(=O)c2ccc3c(c2)C(=O)OC32c3ccc(O)cc3Oc3cc(O)ccc32)NC(=O)[C@H](CCCCN)NC(=O)[C@H](CCC(N)=O)NC(=O)[C@H](CCC(N)=O)NC1=O` [[C](Flu)-K004K] (cyclo(K(5FAM)VVRHLQQK)), for which the “resistance to degradation in liver extract solution (comparison)” value is listed as “strongest resistance to degradation”.
